What was measured:
[1] = In vitro cell culture of ^99mTc-EC-DG with or without transition chelators; assay type: cell-based
Source text: It may also be important to include an antioxidant and a transition chelator in the composition to prevent oxidation of the ethylenedicysteine. For example, the antioxidant may be vitamin C (ascorbic acid). However, other antioxidants known to those of ordinary skill in the art, such as tocopherol, pyridoxine, thiamine, or rutin, may also be used. Any transition chelator known to those of ordinary skill in the art may be used in conjunction with the present invention. Examples of transition chelators include glucoheptonate, gluconate, glucarate, citrate, and tartarate.

[2] = test system: A549 human lung cancer tumor; assay: Tissue distribution in lung tumor-bearing nude mice; assay type: in vivo
Protocol: Female athymic nude mice (NCr-nu/nu, NCI, Bethasda, Md.) were inoculated with human lung cancer cells (A549 tumor cell line, 3×10^6 cells/mouse, intramuscular) by one author in the mid-dorsal region. After the tumor reached 6 mm, separate biodistribution studies using ^99mTc-EC-DG and 18F-FDG were conducted. Each received ^99mTc-EC-DG or 18F-FDG intravenously (n=3/time point). The injection activity was 1-3 μCi/mouse. The injected mass of ^99mTc-EC-DG was 0.2 mg/rodent.

**Q.** For `O=C(N[C@H]1C(O)O[C@H](CO)[C@@H](O)[C@@H]1O)[C@@H]1C[S][Tc]23(=[O])[S]C[C@@H](C(=O)N[C@H]4C(O)O[C@H](CO)[C@@H](O)[C@@H]4O)[N]2CC[N]13` (some centres unmarked) [^99mTc-EC-DG], which “stability with or without transition chelators (gluconate and glucarate)” value [1] is on record?
**A.** Its value is “does not interfere with the stability”.

**Q.** What about the Blood ([2]; 30 min) of the same compound?
**A.** Its Blood is 1.607 ± 0.389 % of injected dose per gram of tissue weight.

**Q.** What about the Brain ([2]; 30 min) of the same compound?
**A.** Its Brain is 0.058 ± 0.008 % of injected dose per gram of tissue weight.

**Q.** What about the Heart ([2]; 30 min) of the same compound?
**A.** The Heart was 0.611 ± 0.193 % of injected dose per gram of tissue weight.

**Q.** And the Intestine ([2]; 30 min)?
**A.** Its Intestine is 0.510 ± 0.093 % of injected dose per gram of tissue weight.

**Q.** And the Kidney ([2]; 30 min)?
**A.** The Kidney was 6.726 ± 1.842 % of injected dose per gram of tissue weight.

**Q.** What about the Liver ([2]; 30 min) of the same compound?
**A.** Its Liver is 5.674 ± 2.089 % of injected dose per gram of tissue weight.

**Q.** And the Lung ([2]; 30 min)?
**A.** The Lung was 1.048 ± 0.259 % of injected dose per gram of tissue weight.

**Q.** What about the Muscle ([2]; 30 min) of the same compound?
**A.** Its Muscle is 0.264 ± 0.072 % of injected dose per gram of tissue weight.

**Q.** And the Spleen ([2]; 30 min)?
**A.** Its Spleen is 3.240 ± 1.709 % of injected dose per gram of tissue weight.

**Q.** What about the Stomach ([2]; 30 min) of the same compound?
**A.** The Stomach was 0.540 ± 0.113 % of injected dose per gram of tissue weight.

**Q.** And the Thyroid ([2]; 30 min)?
**A.** Its Thyroid is 0.929 ± 0.212 % of injected dose per gram of tissue weight.

**Q.** And the Tumor ([2]; 30 min)?
**A.** Its Tumor is 0.787 ± 0.163 % of injected dose per gram of tissue weight.

**Q.** And the Tumor/Blood ([2]; 30 min)?
**A.** Its Tumor/Blood is 0.499 ± 0.022.

**Q.** What about the Tumor/Lung ([2]; 30 min) of the same compound?
**A.** Its Tumor/Lung is 0.769 ± 0.047.

**Q.** And the Tumor/Muscle ([2]; 30 min)?
**A.** The Tumor/Muscle was 3.352 ± 0.749.

**Q.** And the Blood ([2]; 2 h)?
**A.** The Blood was 0.977 ± 0.267 % of injected dose per gram of tissue weight.

**Q.** And the Brain ([2]; 2 h)?
**A.** The Brain was 0.042 ± 0.006 % of injected dose per gram of tissue weight.

**Q.** And the Heart ([2]; 2 h)?
**A.** The Heart was 0.336 ± 0.080 % of injected dose per gram of tissue weight.

**Q.** What about the Intestine ([2]; 2 h) of the same compound?
**A.** Its Intestine is 0.417 ± 0.110 % of injected dose per gram of tissue weight.

**Q.** What about the Kidney ([2]; 2 h) of the same compound?
**A.** Its Kidney is 5.687 ± 1.540 % of injected dose per gram of tissue weight.

**Q.** What about the Liver ([2]; 2 h) of the same compound?
**A.** The Liver was 5.807 ± 1.708 % of injected dose per gram of tissue weight.

**Q.** And the Lung ([2]; 2 h)?
**A.** The Lung was 0.721 ± 0.210 % of injected dose per gram of tissue weight.

**Q.** And the Muscle ([2]; 2 h)?
**A.** The Muscle was 0.148 ± 0.039 % of injected dose per gram of tissue weight.

**Q.** What about the Spleen ([2]; 2 h) of the same compound?
**A.** Its Spleen is 4.205 ± 1.374 % of injected dose per gram of tissue weight.

**Q.** And the Stomach ([2]; 2 h)?
**A.** Its Stomach is 0.439 ± 0.138 % of injected dose per gram of tissue weight.

**Q.** And the Thyroid ([2]; 2 h)?
**A.** The Thyroid was 0.665 ± 0.207 % of injected dose per gram of tissue weight.

**Q.** And the Tumor ([2]; 2 h)?
**A.** The Tumor was 0.415 ± 0.123 % of injected dose per gram of tissue weight.

**Q.** What about the Tumor/Blood ([2]; 2 h) of the same compound?
**A.** Its Tumor/Blood is 0.424 ± 0.022.

**Q.** What about the Tumor/Lung ([2]; 2 h) of the same compound?
**A.** Its Tumor/Lung is 0.587 ± 0.046.

**Q.** And the Tumor/Muscle ([2]; 2 h)?
**A.** The Tumor/Muscle was 2.754 ± 0.120.

**Q.** What about the Blood ([2]; 4 h) of the same compound?
**A.** Its Blood is 0.787 ± 0.152 % of injected dose per gram of tissue weight.

**Q.** What about the Brain ([2]; 4 h) of the same compound?
**A.** Its Brain is 0.042 ± 0.006 % of injected dose per gram of tissue weight.

**Q.** What about the Heart ([2]; 4 h) of the same compound?
**A.** Its Heart is 0.318 ± 0.071 % of injected dose per gram of tissue weight.

**Q.** What about the Intestine ([2]; 4 h) of the same compound?
**A.** The Intestine was 0.374 ± 0.073 % of injected dose per gram of tissue weight.

**Q.** What about the Kidney ([2]; 4 h) of the same compound?
**A.** Its Kidney is 4.318 ± 0.890 % of injected dose per gram of tissue weight.

**Q.** And the Liver ([2]; 4 h)?
**A.** Its Liver is 6.656 ± 1.786 % of injected dose per gram of tissue weight.

**Q.** What about the Lung ([2]; 4 h) of the same compound?
**A.** Its Lung is 0.606 ± 0.128 % of injected dose per gram of tissue weight.

**Q.** And the Muscle ([2]; 4 h)?
**A.** Its Muscle is 0.147 ± 0.022 % of injected dose per gram of tissue weight.

**Q.** What about the Spleen ([2]; 4 h) of the same compound?
**A.** Its Spleen is 5.933 ± 3.194 % of injected dose per gram of tissue weight.

**Q.** And the Stomach ([2]; 4 h)?
**A.** The Stomach was 0.541 ± 0.119 % of injected dose per gram of tissue weight.

**Q.** And the Thyroid ([2]; 4 h)?
**A.** Its Thyroid is 0.692 ± 0.119 % of injected dose per gram of tissue weight.

**Q.** And the Tumor ([2]; 4 h)?
**A.** The Tumor was 0.414 ± 0.161 % of injected dose per gram of tissue weight.

**Q.** And the Tumor/Blood ([2]; 4 h)?
**A.** Its Tumor/Blood is 0.502 ± 0.120.

**Q.** What about the Tumor/Lung ([2]; 4 h) of the same compound?
**A.** The Tumor/Lung was 0.640 ± 0.120.

**Q.** And the Tumor/Muscle ([2]; 4 h)?
**A.** The Tumor/Muscle was 2.795 ± 0.982.

**Q.** What about the “tumor-to-tissue ratios, ^99mTc-EC-DG versus 18F-FDG” value ([2]; A549 nude mice, iv) of the same compound?
**A.** Its value is “higher tumor/muscle and tumor/brain ratios as a function of time”.

From US9050378B2, “N2S2 chelate-targeting ligand conjugates” (Board of Regents, The University of Texas System, priority 2003, dated 2015)
